Experimental findings from patent US20110053985A1, “NOVEL PIPERIDINE-4-CARBOXYLIC ACID PHENYL-ALKYL-AMIDE DERIVATIVES AND THEIR USE AS MONOAMINE NEUROTRANSMITTER RE-UPTAKE INHIBITORS” (NEUROSEARCH A/S, priority 2008, published 2011) are described below.

In data set [1] the target is T1, serotonine (5-HT) reuptake in synaptosomes (Rattus norvegicus, UniProt P31652).
T1 construct: serotonine (5-HT) in synaptosomes as described in WO 97/16451; from tissue; host or cells: synaptosomes (brain tissue)
Put plainly: Inhibition of 5-HT reuptake in synaptosomes. It counts as biochemical. Particulars: 3H-5-HT, read-out: 5-HT-uptake IC50. An excerpt:
(§1) Compounds of the invention may be tested for their ability to inhibit re-uptake of the monoamines dopamine, noradrenaline and serotonin in synaptosomes e.g. such as described in WO 97/30997 (NeuroSearch A/S) or WO 97/16451 (NeuroSearch NS). Based on the balanced activity observed in these tests the compound of the invention is considered useful for the treatment, prevention or alleviation of a disease or a disorder or a condition of a mammal, including a human, which disease, disorder or condition is responsive to inhibition of monoamine neurotransmitter re-uptake in the central nervous system.
(§2) Compounds were tested for their ability to inhibit the reuptake of the monoamine neurotransmitters dopamine (DA) noradrenaline (NA) and serotonine (5-HT) in synaptosomes as described in WO 97/16451 (NeuroSearch A/S).
(§3) The test values are given as IC50 (the concentration (μM) of the test substance which inhibits the specific binding of ^3H-DA, ^3H-NA, or ^3H-5-HT by 50%).

The target of data set [2] is T2, dopamine (DA) reuptake in synaptosomes (Rattus norvegicus, UniProt P23977).
T2 construct: in synaptosomes as described in WO 97/16451; from tissue; host or cells: synaptosomes (brain tissue)
Put plainly: Inhibition of DA reuptake in synaptosomes. It counts as biochemical. Particulars: 3H-DA, read-out: DA-uptake IC50.
Description: as §1, §2, §3

Each structure is given as a SMILES string. Where a name gives a salt, the structure may show the parent alone.

T2 sequence (P23977 whole entry): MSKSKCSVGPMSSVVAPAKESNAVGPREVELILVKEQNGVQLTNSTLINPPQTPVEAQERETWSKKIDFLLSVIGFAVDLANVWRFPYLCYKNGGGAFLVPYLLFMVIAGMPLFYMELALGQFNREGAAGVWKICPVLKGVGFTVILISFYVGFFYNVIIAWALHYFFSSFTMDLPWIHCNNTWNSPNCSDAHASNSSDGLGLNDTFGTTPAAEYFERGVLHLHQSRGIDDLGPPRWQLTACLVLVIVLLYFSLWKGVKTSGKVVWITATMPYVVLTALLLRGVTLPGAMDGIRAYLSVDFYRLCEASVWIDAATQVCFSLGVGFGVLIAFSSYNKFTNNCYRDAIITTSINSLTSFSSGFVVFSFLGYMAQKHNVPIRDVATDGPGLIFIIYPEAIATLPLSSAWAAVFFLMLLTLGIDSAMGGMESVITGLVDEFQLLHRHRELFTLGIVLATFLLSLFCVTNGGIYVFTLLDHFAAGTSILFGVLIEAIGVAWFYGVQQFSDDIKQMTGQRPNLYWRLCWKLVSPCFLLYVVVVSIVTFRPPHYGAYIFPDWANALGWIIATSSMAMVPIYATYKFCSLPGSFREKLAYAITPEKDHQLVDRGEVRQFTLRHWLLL
T1 sequence (P31652 whole entry): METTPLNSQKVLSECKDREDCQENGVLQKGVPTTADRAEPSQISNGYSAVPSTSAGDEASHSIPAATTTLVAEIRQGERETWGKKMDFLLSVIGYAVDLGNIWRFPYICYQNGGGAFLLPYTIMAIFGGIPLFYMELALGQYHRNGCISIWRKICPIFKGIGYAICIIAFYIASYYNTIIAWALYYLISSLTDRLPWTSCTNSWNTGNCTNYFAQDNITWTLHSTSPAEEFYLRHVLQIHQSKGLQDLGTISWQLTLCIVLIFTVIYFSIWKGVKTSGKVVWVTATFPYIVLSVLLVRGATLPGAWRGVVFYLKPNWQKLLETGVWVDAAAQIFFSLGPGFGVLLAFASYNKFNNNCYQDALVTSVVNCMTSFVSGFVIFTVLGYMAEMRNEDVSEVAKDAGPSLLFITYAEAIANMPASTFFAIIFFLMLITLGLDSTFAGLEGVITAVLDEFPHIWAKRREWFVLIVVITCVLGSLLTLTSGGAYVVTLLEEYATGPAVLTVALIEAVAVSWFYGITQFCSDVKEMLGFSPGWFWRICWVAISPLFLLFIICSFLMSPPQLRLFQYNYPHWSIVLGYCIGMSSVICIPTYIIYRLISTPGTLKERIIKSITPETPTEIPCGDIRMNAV

In general, IC50 refers to the point on the concentration scale where inhibition reaches its midpoint. In general, melting point refers to the temperature of the solid-liquid transition. For the compound `CCN(C(=O)C1CCNCC1)c1ccc(Cl)c(Cl)c1.O=C(O)C(F)(F)F` [Compound C1, Piperidine-4-carboxylic acid (3,4-dichloro-phenyl)-ethyl-amide trifluoroacetic acid salt], the melting point was 159.3 to 160.7 °C. The IC50 in data set [1] is 0.37 µM. Besides, the IC50 in data set [2] was found to be 0.021 µM.
For `CCN(C(=O)C1CCNCC1)c1ccc(Br)c(Br)c1` [Compound C13, Piperidine-4-carboxylic acid (3,4-dibromo-phenyl)-ethyl-amide hydrochloric acid salt], the IC50 in data set [1] was found to be 0.12 µM; in data set [2], 0.004 µM.
As to `CCN(C(=O)C1CCNCC1)c1ccc(Cl)c(Br)c1` [Compound C7, Piperidine-4-carboxylic acid (3-bromo-4-chloro-phenyl)-ethyl-amide hydrochloric acid salt], the IC50 amounted to 0.14 µM in data set [1] and 0.0078 µM in data set [2].
